In DBAASP:
Converted amounts (≈) assume the structure as drawn.

What was measured:
Test in all cases: ≥ marks a high value that may be exact or a test limit, other limits are often not marked, values filed in µg/mL are converted to µM
[1] = test system: Bacillus cereus ATCC 11778
[2] = test system: Enterococcus faecalis ATCC 29212
[3] = test system: Escherichia coli ATCC 25922
[4] = test system: Escherichia coli ATCC 35218
Escherichia coli O157 = test system: Escherichia coli O157
[5] = test system: Micrococcus luteus ATCC 9341
[6] = test system: Pseudomonas aeruginosa ATCC 9027
[7] = test system: Salmonella enterica subsp. arizonae ATCC 13314
[8] = test system: Staphylococcus epidermidis ATCC 12228
[9] = test system: Streptococcus pyogenes ATCC 19615
[10] = test system: Bacillus subtilis ATCC 6633
Candida albicans = test system: Candida albicans
[11] = test system: Escherichia coli NIHJ JC-2
[12] = test system: Staphylococcus aureus FDA 209P JC-1
Escherichia coli JM109 = test system: Escherichia coli JM109
Pseudomonas aeruginosa = test system: Pseudomonas aeruginosa
[13] = test system: Staphylococcus aureus ATCC 6538P
Staphylococcus aureus = test system: Staphylococcus aureus
[14] = test system: Candida albicans ATCC 36232
[15] = test system: Corynebacterium diphtheriae ATCC 8024
[16] = test system: Escherichia coli ATCC 2592
[17] = test system: Shigella flexneri ATCC 203
[18] = test system: Staphylococcus aureus ATCC 6538

With `CC(C)C[C@H](NC(=O)[C@H](CCC(N)=O)NC(=O)[C@H](Cc1ccc(O)cc1)NC(=O)[C@H](CCCN=C(N)N)NC(=O)CNC(=O)[C@H](C)NC(=O)[C@H](C)NC(=O)[C@@H](NC(=O)[C@H](CO)NC(=O)[C@H](Cc1ccc(O)cc1)NC(=O)[C@@H](NC(=O)[C@H](CCCCN)NC(=O)[C@H](Cc1ccc(O)cc1)NC(=O)[C@H](CCCN=C(N)N)NC(=O)[C@@H]1CCCN1C(=O)[C@H](CC(C)C)NC(=O)[C@H](Cc1ccc(O)cc1)NC(=O)[C@@H](NC(=O)[C@H](CCCCN)NC(=O)[C@H](CC(C)C)NC(=O)[C@H](CCCN=C(N)N)NC(=O)[C@@H]1CCCN1)C(C)C)C(C)C)[C@@H](C)O)C(=O)N[C@@H](CC(C)C)C(=O)N[C@@H](CO)C(=O)N[C@@H](CCCN=C(N)N)C(=O)N[C@@H](Cc1ccc(O)cc1)C(=O)N[C@@H](Cc1c[nH]c2ccccc12)C(N)=O` [PRLKVYLPRYKVYSTAAGRYQLLSRYW] the MIC [1] was ≥ 75 µM, the MIC [2] was 150 µM (≈ 502 µg/mL) and the MIC [3] was 150 µM (≈ 502 µg/mL). The MIC [4] was ≥ 150 µM, the MIC (Escherichia coli O157) was ≥ 150 µM and the MIC [5] was 19 µM (≈ 63.6 µg/mL). For the same compound, the MIC [6] was > 150 µM, the MIC [7] was ≥ 150 µM and the MIC [8] was 150 µM (≈ 502 µg/mL). The MIC [9] was ≥ 38 µM.

For `CC(C)C[C@H](NC(=O)CN)C(=O)N[C@@H](CC(C)C)C(=O)N[C@@H](CC(=O)O)C(=O)N[C@@H](CO)C(=O)N[C@@H](CC(C)C)C(=O)N[C@@H](CCCCN)C(=O)NCC(=O)N[C@@H](Cc1ccccc1)C(=O)N[C@@H](C)C(=O)N[C@@H](C)C(=O)N[C@H](C(=O)N[C@@H](C)C(=O)NCC(=O)N[C@@H](CCCCN)C(=O)NCC(=O)N[C@H](C(=O)N[C@@H](CC(C)C)C(=O)N[C@@H](CCC(N)=O)C(=O)N[C@@H](CO)C(=O)N[C@@H](CC(C)C)C(=O)N[C@@H](CC(C)C)C(=O)N[C@@H](CO)C(=O)N[C@H](C(=O)N[C@@H](C)C(=O)N[C@@H](CO)C(=O)N[C@H]1CSSC[C@@H](C(=O)O)NC(=O)[C@H]([C@@H](C)O)NC(=O)[C@H](CCCCN)NC(=O)[C@H](C)NC(=O)[C@H](CC(C)C)NC(=O)[C@H](CCCCN)NC1=O)[C@@H](C)O)C(C)C)[C@@H](C)O` [GLLDSLKGFAATAGKGVLQSLLSTASCKLAKTC], the MIC [10] was 0.615 µM (≈ 2 µg/mL), the MIC (Candida albicans) was > 40 µM and the MIC [11] was 1.23 µM (≈ 4 µg/mL). It also gave an MIC [12] of 2.46 µM (≈ 8 µg/mL).

For `CC[C@H](C)[C@H](NC(=O)[C@H](C)NC(=O)[C@H](CC(C)C)NC(=O)[C@H](Cc1c[nH]c2ccccc12)NC(=O)[C@H](CC(C)C)NC(=O)[C@H](C)N)C(=O)N[C@@H](CCCN=C(N)N)C(=O)N[C@@H](CCCN=C(N)N)C(=O)N[C@@H](CCCN=C(N)N)C(N)=O` [ALWLAIRRR], the MIC (Escherichia coli JM109) was 2.6 µM (≈ 3 µg/mL), the MIC (Pseudomonas aeruginosa) was 3.46 µM (≈ 4 µg/mL) and the MIC [13] was 1.73 µM (≈ 2 µg/mL). The MIC (Staphylococcus aureus) was 27.7 µM (≈ 32 µg/mL).

In the case of `CC(C)[C@H](NC(=O)[C@H](CS)NC(=O)[C@@H](NC(=O)[C@H](CCCN=C(N)N)NC(=O)[C@H](CCCCN)NC(=O)CNC(=O)[C@H](CC(N)=O)NC(=O)[C@@H](N)CS)C(C)C)C(=O)N[C@@H](CS)C(=O)N[C@@H](CCCN=C(N)N)C(N)=O` [CNGKRVCVCR], the MIC [10] is reported as 13.2 µM (≈ 15 µg/mL), the MIC [14] is reported as 13.2 µM (≈ 15 µg/mL) and the MIC [15] is reported as 6.59 µM (≈ 7.49 µg/mL). For the same compound, the MIC [16] was 6.59 µM (≈ 7.49 µg/mL), the MIC [5] was 11 µM (≈ 12.5 µg/mL) and the MIC [6] was 44 µM (≈ 50 µg/mL). The MIC [17] was 26.4 µM (≈ 30 µg/mL), the MIC [18] was 26.4 µM (≈ 30 µg/mL) and the MIC (Staphylococcus aureus) was > 87.9 µM. It also gave an MIC [8] of 13.2 µM (≈ 15 µg/mL).
